For 2 molecules, Ki results are on record in patent US20070249705A1, “N-(1-(2,3-Dihydro-1H-Inden-5Yl)-2-Oxo-3-Pyrrolidinyl)-Sulfonamide Derivatives for Use as Factor Xa Inhibitors” (priority 2004, published 2007).

This assay deals with human Factor Xa (Homo sapiens, UniProt P00742). The assay is described as follows: In vitro fluorogenic assay for inhibition of Factor Xa. The class given is biochemical. Particulars: Ki = IC50/1.6. The protocol: In Vitro Assay for Inhibition of Factor Xa
Compounds of the present invention were tested for their Factor Xa inhibitory activity as determined in vitro by their ability to inhibit human Factor Xa in a fluorogenic assay, using Rhodamine 110, bis-CBZ-glycylglycyl-L-arginine amide as the fluorogenic substrate. Compounds were diluted from a 10 mM stock solution in dimethylsulfoxide at appropriate concentrations. Assay was performed at room temperature using buffer consisting of: 50 mM Tris-HCl, 150 mM NaCl, 5 mM CaCl2, pH 7.4 containing human Factor Xa (final concentration of 0.0003 U.ml-1). Compound and enzyme were preincubated for 15 min prior to addition of the substrate (final concentration of 10 μM). The reaction was stopped after 3 hrs with the addition of H-D-Phe-Pro-Arg-Chloromethylketone. An LJL-Analyst fluorimeter was used to monitor fluorescence with 485 nm excitation/535 nm emission. To obtain IC50 values the data were analysed using ActivityBase® and XLfit®.
Calculation of Ki values:
Ki=IC50/(1+[Substrate]/Km)
The Ki value for the above assay can be obtained by dividing the IC50 value by 1.6.

Structures are written as SMILES.

human Factor Xa, sequence (P00742 235-488 limits assumed): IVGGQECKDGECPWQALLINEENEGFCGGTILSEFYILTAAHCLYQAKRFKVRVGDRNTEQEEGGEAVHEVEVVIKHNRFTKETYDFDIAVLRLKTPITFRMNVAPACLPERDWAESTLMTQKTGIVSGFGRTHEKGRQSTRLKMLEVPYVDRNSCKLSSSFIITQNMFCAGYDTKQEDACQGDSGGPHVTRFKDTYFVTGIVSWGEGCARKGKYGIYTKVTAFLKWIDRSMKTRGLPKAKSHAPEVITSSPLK
human Factor Xa, sequence (P00742 41-179 partner limits assumed): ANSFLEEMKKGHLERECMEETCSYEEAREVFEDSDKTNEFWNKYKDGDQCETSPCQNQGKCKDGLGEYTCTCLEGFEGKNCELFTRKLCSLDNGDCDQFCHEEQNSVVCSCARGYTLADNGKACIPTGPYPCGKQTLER

Consider `CN(C)C1CCc2cc(N3CCC(NS(=O)(=O)c4cc5ccc(Cl)cc5s4)C3=O)ccc21` (centres unmarked) [Example 3, 6-Chloro-N-{1-[1-(dimethylamino)-2,3-dihydro-1H-inden-5-yl]-2-oxo-3-pyrrolidinyl}-1-benzothiophene-2-sulfonamide], for which the inhibition constant (Ki) (commonly a dissociation constant, usually derived from enzyme kinetics or from competition with a known ligand) is less than 50 nM.
Next, `CNC1CCc2cc(N3CC[C@H](N(C)S(=O)(=O)c4ccc5cc(Cl)ccc5c4)C3=O)ccc21` (stereo partly drawn) [Example 12, 6-Chloro-N-methyl-N-{(3S)-1-[1-(methylamino)-2,3-dihydro-1H-inden-5-yl]-2-oxo-3-pyrrolidinyl}-2-naphthalenesulfonamide]: less than 50 nM.
